# Reference: patent publication US20030109035A1, “Method of forming vertebrate pancreas in vitro” (priority 2000, published 2003)
# What was measured:
# [1] = system: insulin and XlHbox8; assay: RT-PCR expression of pancreas-specific genes in explants; type: cell-based, Xenopus laevis; settings: treated with one agent alone, cultured three days
# Description: C., and the expression of insulin that is a pancreas-specific gene (Henry, G. L. et al.; Development 122, 1007-1015, 1996) and XlHbox8 (Lemaire, P. et al.; Development 125, 2371-2380, 1998) were examined by the method as previously described (Yokota, C. et al.; J. Biochem. 123, 339-346, 1998). […] EF-1α (elongation factor 1α) was used as a loading control. The combination of primers of each gene in PCR reaction that were used is as follows: insulin [insulin-[…] No. 1), insulin-[…] No. 2)], […] No. 3), […] No. 4)], […] No. 5), and […] No. 6)]. Seventy-six μl of DDW, 10 μl of 10×Ex buffer, 8 μl of 2.5 mM dNTPs mix, 0.5 μl of 5[…] 0.5 μl of 100 μM of each of the above-mentioned primers were added to 5 μl of the above-mentioned cDNA (20 ng/μl), and PCR reaction was conducted with the total amount of 100 μl. The thermal cycle program, which is a cycle to denature for four minutes at 94° C. only at the first time, followed by thermal denaturation for 30 seconds at 94° C., […], was repeated for 23 to 30 times. Ultimately, annealing was conducted for nine minutes at 72° C. […] As a negative control, EF-1α wherein RT-PCR was conducted under a condition where the reverse transcription factor had been eliminated was used.
# [2] = system: whole embryos; assay: Retinoic acid treatment of whole embryos from blastula to gastrula; type: in vivo, Xenopus
# Description: Moreover, there has been a report regarding the effect of retinoic acid to the endoderm of Xenopus embryo (Zeynali, B. and Dixon, K. E.; Dev. Genes. Evol. 208, 318-326, 1998). […] The present inventors conducted retinoic acid treatment to the whole embryos from the period of blastula to gastrula. […] However, the physical relationship of each of the endodermal organs was abnormal and the endodermal organs were formed aggregately in the anterior and posterior axis direction.
# [3] = system: Xenopus embryos at developmental stage 22 to 32; settings: cited from earlier work
# [4] = system: blastopore upper lip cell of Xenopus early gastrula; settings: cited from earlier work
# [5] = system: pieces of presumptive ectoderm of Xenopus late blastula; assay: Simultaneous one-hour treatment of pieces of presumptive ectoderm with activin/retinoic acid, tissues that differentiate (light microscopy); type: cell-based, Xenopus laevis
# Experimental: (§1) The dorsal lymph sacs of adult male and female Xenopus laevis were each injected with 600 IU of hCG (human chorionic gonadotropin; Gestron; Denka Seiyaku, Japan), and fertilized eggs were obtained by mating these Xenopuses. These late blastulas [developmental stage 9] were dejellied in Steinberg's solution (SS: 58.00 mM NaCl, 0.67 mM KCl, 0.34 mM Ca(NO3)2, 0.83 mM MgSO4, 3.00 mM HEPES and 100 mg/l kanamycin sulfate; pH 7.4) containing 4.5% cysteine hydrochloride (pH 7.8), and the vitelline membranes were removed in the Steinberg's solution by using a pair of watchmaker's tweezers. The presumptive ectoderm portion of Xenopus late blastula thus obtained was cut into a size of 0.4 mm×0.4 mm by using a tungsten needle.
# (§2) Human recombinant activin A (Ajinomoto Co., Inc.) was dissolved in Steinberg's solution containing 0.1% bovine serum albumin (BSA) to a concentration of 100 ng/ml, and an activin solution was prepared.
# C. (see temporary treatment in FIG. 1). These explants that had been cultured were fixed with Bouin's solution, followed by dehydration treatment of a series of ethanol and xylene, and these explants were embedded in paraffin and sliced into 6 μm sections. These sections were stained with hematoxylin and eosin, and the tissues that differentiated were observed and examined under a light microscope. Further, the untreated pieces of presumptive ectoderm were also observed and examined in the same manner by using a light microscope.
# [6] = system: pieces of presumptive ectoderm of Xenopus late blastula; assay: Simultaneous and continuous treatment of pieces of presumptive ectoderm with activin/retinoic acid, tissues that differentiate; type: cell-based, Xenopus laevis; settings: continuous, activin 100 ng/ml, retinoic acid 0 M, 10 samples
# Experimental: as §1, §2
# Based on the results from Example 2, since the effect of retinoic acid treatment was found in the differential pattern of mesodermal tissues, it can be considered that retinoic acid acted in the period when the fate of the mesoderm is determined to each mesodermal tissue (notochord, muscle, pronephric tubule and the like, for example). […] C. for 10 days (see continuous treatment in FIG. 1). These explants that had been cultured were stained in the same manner as in Example 2, and the tissues that differentiated were observed and examined by using a light microscope.
# [7] = system: pieces of presumptive ectoderm of Xenopus late blastula; assay: Time lag treatment of pieces of presumptive ectoderm with activin then retinoic acid, tissues that differentiate; type: cell-based, Xenopus laevis; settings: activin 100 ng/ml alone 1 h, 65 samples
# Experimental: as §1
# A time lag was provided between the treatment with activin and treatment with retinoic acid, so that the action of retinoic acid can be received for the first time, after the differentiation to dorsal mesoderm/anterior endoderm had been determined by action of activin. […] After the elapse of the time lag, the pieces of presumptive ectoderm were left at rest in retinoic acid solution at 10^−4 M for one hour, washed two times with Steinberg's solution containing 0.1% BSA, and then cultured in Steinberg's solution containing 0.1% BSA at 20° C. for ten days (see time lag treatment in FIG. 1). These explants that had been cultured were stained in the same manner as described in Example 2, and the tissues that differentiated were observed and examined under a light microscope.
# [8] = system: Xenopus animal cap cells; settings: cited from earlier work
# [9] = activin 100 ng/ml, retinoic acid 0 M, 1 h, 31 samples
compound,measurement,setting,value
"CC1=C(/C=C/C(C)=C/C=C/C(C)=C/C(=O)O)C(C)(C)CCC1 [retinoic acid, All-trans retinoic acid]",expression of insulin and XlHbox8,[1],expression of these genes was not found
same,morphology of treated embryos,[2],head-deficient embryos
same,induction of pancreas in vivo,[2]; whole embryos treated from blastula to gastrula,pancreas was not induced specifically in vivo
same,expression of XlHbox8,[3],no effect is found in the expression of XlHbox8
same,formation of pancreas,[3],formed normally
same,morphology of the digestive organs,[3],"the morphology of the digestive organs such as intestines, liver and stomach become abnormal"
same,pancreas formation,[4],enables pancreas formation with high efficiency
"activin: Human recombinant activin A (Ajinomoto Co., Inc.)",Atypical epidermis differentiated in explants,[5]; [9],0(0) number (percentage)
same,Cartilage differentiated in explants,[5]; [9],5(16) number (percentage)
same,Coelomic epithelium differentiated in explants,[5]; [9],15(48) number (percentage)
same,Epidermis differentiated in explants,[5]; [9],30(97) number (percentage)
same,Intestinal epithelium differentiated in explants,[5]; [9],0(0) number (percentage)
same,Mesenchyme differentiated in explants,[5]; [9],31(100) number (percentage)
same,Muscle differentiated in explants,[5]; [9],25(81) number (percentage)
same,Neural tissue differentiated in explants,[5]; [9],12(39) number (percentage)
same,Notochord differentiated in explants,[5]; [9],4(13) number (percentage)
same,Pancreas differentiated in explants,[5]; [9],0(0) number (percentage)
same,Pharyngeal epithelium differentiated in explants,[5]; [9],12(39) number (percentage)
same,Pronephric tubule differentiated in explants,[5]; [9],7(23) number (percentage)
same,Yolk-rich cell differentiated in explants,[5]; [9],18(58) number (percentage)
same,tissues that differentiated,[5]; treated only with activin (100 ng/ml),"dorsal mesodermal and anterior endodermal tissues such as notochord, muscle, pharyngeal epithelium and the like differentiated"
same,Atypical epidermis differentiated in explants,[6],0(0) number (percentage)
same,Cartilage differentiated in explants,[6],1(10) number (percentage)
same,Coelomic epithelium differentiated in explants,[6],4(40) number (percentage)
same,Epidermis differentiated in explants,[6],9(90) number (percentage)
same,Intestinal epithelium differentiated in explants,[6],0(0) number (percentage)
same,Mesenchyme differentiated in explants,[6],9(90) number (percentage)
same,Muscle differentiated in explants,[6],10(100) number (percentage)
same,Neural tissue differentiated in explants,[6],10(100) number (percentage)
same,Notochord differentiated in explants,[6],3(30) number (percentage)
same,Pancreas differentiated in explants,[6],0(0) number (percentage)
same,Pharyngeal epithelium differentiated in explants,[6],5(50) number (percentage)
same,Pronephric tubule differentiated in explants,[6],0(0) number (percentage)
same,Yolk-rich cell differentiated in explants,[6],5(50) number (percentage)
same,Atypical epidermis differentiated in explants,[7],0(0) number (percentage)
same,Cartilage differentiated in explants,[7],12(18) number (percentage)
same,Coelomic epithelium differentiated in explants,[7],28(43) number (percentage)
same,Epidermis differentiated in explants,[7],59(91) number (percentage)
same,Intestinal epithelium differentiated in explants,[7],3(5) number (percentage)
same,Mesenchyme differentiated in explants,[7],59(91) number (percentage)
same,Muscle differentiated in explants,[7],37(57) number (percentage)
same,Neural tissue differentiated in explants,[7],32(49) number (percentage)
same,Notochord differentiated in explants,[7],34(52) number (percentage)
same,Pancreas differentiated in explants,[7],0(0) number (percentage)
same,Pharyngeal epithelium differentiated in explants,[7],37(57) number (percentage)
same,Pronephric tubule differentiated in explants,[7],5(8) number (percentage)
same,Yolk-rich cell differentiated in explants,[7],29(45) number (percentage)
same,expression of insulin and XlHbox8,[1],induced only a little
same,induction of mesodermal tissues,[8],"induces most mesodermal tissues such as notochord, muscle, mesenchyme and coelomic epithelium, dose-dependently"
